Measured values taken from patent US20110071158A1, “NEW COMPOUNDS” (BOEHRINGER INGELHEIM INTERNATIONAL GMBH, priority 2009, published 2011).

biological target: T1, PTK2 enzyme (Homo sapiens, UniProt Q05397); experiment: PTK2 enzyme test, Assay 1 (DELFIA, poly-Glu-Tyr substrate, antibody PT60); format: biochemical; conditions: Assay 1 (values without *); 1 h pre-incubation, 2% DMSO
T1 construct: purchased Invitrogen PV3832
Experimental: This test uses active PTK2 enzyme (Invitrogen Code PV3832) and poly-Glu-Tyr (4:1, Sigma P-0275) as the kinase substrate. The kinase activity is detected through the phosphorylation of the substrate in a DELFIA™ assay. The phosphorylated substrate is detected with the europium-labelled phosphotyrosine antibody PT60 (Perkin Elmer, No.: AD00400).
In order to determine concentration-activity curves with PTK2-inhibitors the compounds are serially diluted in 10% DMSO/H2O and 10 μL of each dilution are placed in each well of a 96-well microtitre plate (clear plate with a U-shaped base, Greiner No. 650101) (the inhibitors are tested in duplicates) and mixed with 10 μL/well of PTK2 kinase (0.01 μg/well). PTK2 kinase has been correspondingly diluted beforehand with kinase dilution buffer (20 mM TRIS/HCl pH 7.5, 0.1 mM EDTA, 0.1 mM EGTA, 0.286 mM sodium orthovanadate, 10% glycerol with the addition of freshly prepared BSA (fraction V, 1 mg/mL) and DTT (1 mM)). The test compound and the PTK2 kinase are pre-incubated for 1 h at RT and shaken at 500 revolutions per min. The reaction is started by the addition of 10 μL/well poly (Glu,Tyr) substrate (25 μg/well poly (Glu, Tyr), 0.05 μg/well biotinylated poly (Glu,Tyr) dissolved in 250 mM TRIS/HCl pH 7.5, 9 mM DTT)—the final concentration of DMSO is 2%. Then 20 μL of ATP Mix (30 mM TRIS/HCl pH 7.5, 0.02% Brij, 0.2 mM sodium orthovanadate, 10 mM magnesium acetate, 0.1 mM EGTA, 1× phosphatase inhibitor cocktail 1 (Sigma, No.: P2850), 50 μM ATP (Sigma, No.: A3377; 15 mM stock solution)) are added. After 1 h of kinase reaction (the plates are shaken at 500 rpm), the reaction is stopped by the addition of 12 μL/well 100 mM EDTA, pH 8.0 and shaken for a further 5 min at RT (500 rpm). 55 μL of the reaction mixture are transferred into a streptavidin plate (Strepta Well High Bind (transparent, 96-well) made by Roche, No.: 11989685001) and incubated for 1 h at RT (shaking at 500 rpm). Then the microtitre plate is washed three times with 200 μL/well D-PBS (Invitrogen, No. 14190). 100 μL of a solution containing DELFIA Eu-N1 Anti-Phosphotyrosine PT60 antibody (Perkin Elmer, No.: AD0040, diluted 1:2000 in DELFIA test buffer (Perkin Elmer, No.: 1244-111)) is then added and the mixture is incubated for 1 h at RT (shaking at 500 rpm). Then the plate is washed three times with 200 μL/well DELFIA washing buffer (Perkin Elmer, No.: 1244-114), 200 μL/well strengthening solution (Perkin Elmer, No.: 1244-105) are added and the mixture is incubated for 10 min at RT (shaking at 300 rpm).
The time-delayed europium fluorescence is then measured in a microtitre plate reader (VICTOR^3, Perkin Elmer). […] Wells that contain test buffer instead of enzyme are used as a control of the background kinase activity.
The IC50 values are determined from analyses of the concentration activity by iterative calculation with the aid of a sigmoid curve analysis algorithm (FIFTY, based on Graph PAD Prism Version 3.03) with a variable Hill coefficient.

T1 sequence (Q05397 whole entry): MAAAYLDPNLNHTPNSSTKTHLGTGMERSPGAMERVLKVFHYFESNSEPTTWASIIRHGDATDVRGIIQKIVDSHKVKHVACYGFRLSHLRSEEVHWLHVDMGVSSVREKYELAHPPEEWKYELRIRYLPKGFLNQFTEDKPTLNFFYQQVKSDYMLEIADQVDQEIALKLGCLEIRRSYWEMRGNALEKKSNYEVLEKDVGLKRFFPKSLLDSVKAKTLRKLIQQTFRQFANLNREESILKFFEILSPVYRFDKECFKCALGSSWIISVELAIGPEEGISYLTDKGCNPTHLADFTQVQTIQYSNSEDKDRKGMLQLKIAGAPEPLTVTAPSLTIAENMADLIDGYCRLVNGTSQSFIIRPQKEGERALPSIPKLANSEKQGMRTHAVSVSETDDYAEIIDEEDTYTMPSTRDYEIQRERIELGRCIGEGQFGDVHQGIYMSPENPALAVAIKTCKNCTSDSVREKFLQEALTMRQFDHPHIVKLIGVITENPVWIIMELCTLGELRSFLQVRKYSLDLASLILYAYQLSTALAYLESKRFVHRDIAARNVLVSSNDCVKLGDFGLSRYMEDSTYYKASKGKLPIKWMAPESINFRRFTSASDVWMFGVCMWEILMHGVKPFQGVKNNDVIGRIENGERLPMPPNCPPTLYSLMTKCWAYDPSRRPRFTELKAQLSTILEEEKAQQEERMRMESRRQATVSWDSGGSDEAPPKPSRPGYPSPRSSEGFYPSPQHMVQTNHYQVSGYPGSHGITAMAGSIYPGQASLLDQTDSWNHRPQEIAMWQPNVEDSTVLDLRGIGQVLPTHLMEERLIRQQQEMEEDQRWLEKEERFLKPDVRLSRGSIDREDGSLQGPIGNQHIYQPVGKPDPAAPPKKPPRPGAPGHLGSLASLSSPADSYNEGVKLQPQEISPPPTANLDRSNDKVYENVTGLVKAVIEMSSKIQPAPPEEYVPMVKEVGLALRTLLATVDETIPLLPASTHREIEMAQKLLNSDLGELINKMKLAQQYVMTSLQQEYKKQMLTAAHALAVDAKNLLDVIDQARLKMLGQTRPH

| SMILES | IC50 [nM] |
| --- | --- |
| COc1cc(Nc2ncc(C(F)(F)F)c(N[C@@H]3CCCC[C@H]3N(C)S(C)(=O)=O)n2)ccc1NC(C)=O [Example I-177] | 2 |
| COc1cc(C(=O)NC2CCCN(C)C2)ccc1Nc1ncc(Br)c(N[C@@H]2CCCC[C@H]2NC(C)=O)n1 (some centres unmarked) [Example I-45] | 1 |
| COc1cc(C(=O)NC2CCN(C)CC2)c(F)cc1Nc1ncc(C(F)(F)F)c(N[C@@H]2CCCC[C@H]2NC(=O)C(C)C)n1 [Example I-121] | 3 |
| COc1cc(C(=O)N(C)C)ccc1Nc1ncc(Br)c(N[C@@H]2CCCC[C@H]2NC(C)=O)n1 [Example I-49] | 10 |
| COc1cc(C(=O)NC2CCOCC2)c(F)cc1Nc1ncc(C(F)(F)F)c(N[C@@H]2CCCC[C@H]2NC(C)=O)n1 [Example I-86] | 7 |
| COc1cc(C(=O)NC2CCCN(C)C2)ccc1Nc1ncc(C(F)(F)F)c(N[C@@H]2CCCC[C@H]2N(C)C(C)=O)n1 (some centres unmarked) [Example I-74] | 1 |
| COc1cc(C(=O)O)ccc1Nc1ncc(C(F)(F)F)c(N[C@@H]2CCCC[C@H]2NC(C)=O)n1 [Example I-89] | 9 |
| COc1cc(C(=O)NC2CCN(C)CC2)ccc1Nc1ncc(C(F)(F)F)c(N[C@@H]2CCCC[C@@H]2NC(C)=O)n1 [Example I-5] | 19 |
| CNC(=O)c1ccc(Nc2ncc(Cl)c(N[C@@H]3CCCC[C@H]3NC(C)=O)n2)c(OC)c1 [Example I-56] | 3 |
| COc1cc(C(=O)NC2CCCN(C)C2)ccc1Nc1ncc(Cl)c(N[C@@H]2CCCC[C@H]2NC(C)=O)n1 (some centres unmarked) [Example I-62] | 1 |
| COc1cc(C(=O)NC2CCCN(C)C2)ccc1Nc1ncc(Cl)c(N[C@@H]2CCCC[C@H]2N(C)S(C)(=O)=O)n1 (some centres unmarked) [Example I-163] | 2 |
| COc1ccccc1Nc1ncc(Br)c(N[C@@H]2CCCC[C@H]2NC(C)=O)n1 [Example I-53] | 8 |
| CCN([C@@H]1CCCC[C@H]1Nc1nc(Nc2ccc(NC(C)=O)c(C)c2)ncc1C(F)(F)F)S(C)(=O)=O [Example I-188] | 16 |
| COc1cc(N2CCN(C)CC2)ccc1Nc1ncc(C(F)(F)F)c(N[C@@H]2CCCC[C@H]2NC(=O)CN(C)C)n1 [Example I-32] | 21 |
| COc1cc(N2CCN(CC(=O)N(C)C)CC2)ccc1Nc1ncc(C(F)(F)F)c(N[C@@H]2CCCC[C@H]2N(C)S(C)(=O)=O)n1 [Example I-150] | 2 |
| COCCNC(=O)c1ccc(Nc2ncc(Br)c(N[C@@H]3CCCC[C@H]3NC(C)=O)n2)c(OC)c1 [Example I-52] | 2 |
| COc1cc(CN(C)C)ccc1Nc1ncc(C(F)(F)F)c(N[C@@H]2CCCC[C@H]2NC(C)=O)n1 [Example I-118] | 1 |
| CON[C@@H]1CCCC[C@H]1Nc1nc(Nc2ccc(C(=O)NC3CCN(C)CC3)cc2OC)ncc1C(F)(F)F [Example I-119] | 6 |
| COc1cc(N2CCN(C(C)(C)C)CC2)ccc1Nc1ncc(C(F)(F)F)c(N[C@@H]2CCCC[C@H]2N(C)S(C)(=O)=O)n1 [Example I-145] | 3 |
| COc1cc(C(=O)NC2CCCN(C)C2)c(F)cc1Nc1ncc(C(F)(F)F)c(N[C@@H]2CCCC[C@H]2NC(C)=O)n1 (some centres unmarked) [Example I-88] | 2 |
| CNCc1ccc(Nc2ncc(C(F)(F)F)c(N[C@@H]3CCCC[C@H]3NC(C)=O)n2)c(OC)c1 [Example I-76] | 1 |
| COc1cc(C(=O)N(C)C)ccc1Nc1ncc(Cl)c(N[C@@H]2CCCC[C@H]2NC(C)=O)n1 [Example I-57] | 26 |
| CC(=O)Nc1ccc(Nc2ncc(C(F)(F)F)c(N[C@@H]3CCCC[C@H]3N(C)S(C)(=O)=O)n2)cc1C [Example I-186] | 4 |
| COCCNC(=O)c1ccc(Nc2ncc(Cl)c(N[C@@H]3CCCC[C@H]3NC(C)=O)n2)c(OC)c1 [Example I-65] | 3 |
| CCN1CCC(NC(=O)c2ccc(Nc3ncc(C(F)(F)F)c(N[C@@H]4CCC[C@H]4N(C)S(C)(=O)=O)n3)c(OC)c2)CC1 [Example I-129] | 0.73 |

| SMILES | IC50 [nM] |
| --- | --- |
| COc1cc(C(=O)NC2CCN(C)CC2)ccc1Nc1ncc(C(F)(F)F)c(N[C@H]2CCCC[C@@H]2NC(C)=O)n1 [Example I-35] | 81 |
| COc1cc(C(=O)NC2CCN(C)CC2)ccc1Nc1ncc(C(F)(F)F)c(N[C@@H]2CCCC[C@H]2NC(=O)C2CC2)n1 [Example I-20] | 1 |
| COc1cc(C(=O)NC2CCOCC2)ccc1Nc1ncc(Cl)c(N[C@@H]2CCCC[C@H]2NC(C)=O)n1 [Example I-60] | 3 |
| COc1cc(C(=O)NC2CCOCC2)ccc1Nc1ncc(C(F)(F)F)c(N[C@H]2CCCC[C@@H]2NC(C)=O)n1 [Example I-36] | 400 |
| CNCc1ccc(Nc2ncc(C(F)(F)F)c(N[C@@H]3CCCC[C@H]3NC(=O)C(C)C)n2)c(OC)c1 [Example I-79] | 3 |
| COCCN1CCC(NC(=O)c2cc(OC)c(Nc3ncc(Cl)c(N[C@@H]4CCCC[C@H]4N(C)S(C)(=O)=O)n3)cc2Cl)CC1 [Example I-167] | 3 |
| CCC(=O)N[C@@H]1CCCC[C@H]1Nc1nc(Nc2cc(F)c(C(=O)NC3CCN(C)CC3)cc2OC)ncc1C(F)(F)F [Example I-120] | 2 |
| CCC(=O)N[C@@H]1CCCC[C@H]1Nc1nc(Nc2ccc(CNC)cc2OC)ncc1C(F)(F)F [Example I-77] | 2 |
| COc1cc(C(=O)NC2CCN(C)CC2)ccc1Nc1ncc(C(F)(F)F)c(N[C@@H]2CCCC[C@H]2NCC(=O)N(C)OC)n1 [Example I-26] | 23 |
| CCN1CCC(NC(=O)c2ccc(Nc3ncc(C(F)(F)F)c(N[C@@H]4CCCC[C@H]4N(C)C(C)=O)n3)c(OC)c2)CC1 [Example I-71] | 10 |
| COc1cc(C(=O)NC2CCN(C)CC2)ccc1Nc1ncc(Cl)c(N[C@@H]2CCCC[C@H]2NC(C)=O)n1 [Example I-64] | 1 |
| CCN1CCC(NC(=O)c2cc(OC)c(Nc3ncc(C(F)(F)F)c(N[C@@H]4CCCC[C@H]4NC(C)=O)n3)cc2F)CC1 [Example I-87] | 2 |
| COc1cc(C(=O)NC2CCN(C)CC2)ccc1Nc1ncc(C(F)(F)F)c(N[C@@H]2CCCC[C@H]2NC(=O)CC(C)C)n1 [Example I-14] | 32 |
| CCN([C@@H]1CCCC[C@H]1Nc1nc(Nc2ccc(NC(C)=O)c(OC)c2)ncc1C(F)(F)F)S(C)(=O)=O [Example I-189] | 9 |
| COc1cc(N2CCN(C(C)(C)C)CC2)ccc1Nc1ncc(Cl)c(N[C@@H]2CCCC[C@H]2N(C)S(C)(=O)=O)n1 [Example I-183] | 4 |
| COc1cc(C(=O)NC2CCN(C)CC2)ccc1Nc1ncc(C(F)(F)F)c(N[C@@H]2CCCC[C@H]2NC(=O)C2CCC2)n1 [Example I-23] | 3 |
| COc1cc(CN2CCN(C)CC2)ccc1Nc1ncc(C(F)(F)F)c(N[C@@H]2CCCC[C@H]2NC(C)=O)n1 [Example I-116] | 1 |
| CCN1CCC(NC(=O)c2ccc(Nc3ncc(Br)c(N[C@@H]4CCCC[C@H]4NC(C)=O)n3)c(OC)c2)CC1 [Example I-51] | 1 |
| COCC(=O)N[C@@H]1CCCC[C@H]1Nc1nc(Nc2ccc(C(=O)NC3CCN(C)CC3)cc2OC)ncc1C(F)(F)F [Example I-21] | 4 |
| COc1cc(C(=O)NC2CCN(C)CC2)ccc1Nc1ncc(C(C)C)c(N[C@@H]2CCCC[C@H]2N(C)S(C)(=O)=O)n1 [Example I-175] | 0.64 |
| COC(=O)N(C)[C@@H]1CCCC[C@H]1Nc1nc(Nc2ccc(C(=O)NC3CCN(C)CC3)cc2OC)ncc1C(F)(F)F [Example I-95] | 7 |
| COc1cc(C(=O)NC2CCN(C)CC2)c(F)cc1Nc1ncc(Cl)c(N[C@@H]2CCCC[C@H]2N(C)S(C)(=O)=O)n1 [Example I-174] | 4 |
| CCN(C(C)=O)[C@@H]1CCCC[C@H]1Nc1nc(Nc2ccc(C(=O)NC3CCN(C)CC3)cc2OC)ncc1C(F)(F)F [Example I-99] | 3 |
| COc1cc(C(=O)NCCN(C)C)ccc1Nc1ncc(Br)c(N[C@@H]2CCCC[C@H]2NC(C)=O)n1 [Example I-47] | 0.96 |
| CCNC(=O)c1ccc(Nc2ncc(C(F)(F)F)c(N[C@@H]3CCCC[C@H]3NC(C)=O)n2)c(OC)c1 [Example I-7] | 3 |
